Source: ChEMBL document CHEMBL5465560, “Selectivity Literature for EUbOPEN Chemogenomic Library” (2024)

Tests used:
[1] = molecular target: Receptor tyrosine-protein kinase erbB-2 (Homo sapiens, UniProt P04626); assay: Selectivity interaction (SelectScreen profiling (Invitrogen)) EUB0000607a ERBB2; conditions: at 2 µM
[2] = molecular target: T1, Phosphorylase b kinase gamma catalytic chain, liver/testis isoform (Homo sapiens) (UniProt P15735); assay: Selectivity interaction (Upstate Kinase Profiler service (Millipore)) EUB0000056c PHKG2; conditions: at 1 µM
T1 sequence (whole entry): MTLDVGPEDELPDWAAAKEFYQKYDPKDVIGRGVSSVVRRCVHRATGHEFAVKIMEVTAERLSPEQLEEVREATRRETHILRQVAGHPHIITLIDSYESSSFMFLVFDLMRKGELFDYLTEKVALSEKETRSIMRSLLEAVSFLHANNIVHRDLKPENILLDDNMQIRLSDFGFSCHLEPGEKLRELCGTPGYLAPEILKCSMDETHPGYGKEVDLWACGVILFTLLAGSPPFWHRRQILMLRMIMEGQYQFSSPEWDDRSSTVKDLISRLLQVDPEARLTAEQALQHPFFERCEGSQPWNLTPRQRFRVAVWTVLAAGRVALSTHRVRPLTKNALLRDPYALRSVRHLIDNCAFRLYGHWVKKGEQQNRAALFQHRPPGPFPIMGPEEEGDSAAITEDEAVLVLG

[3] = molecular target: T2, Serine/threonine-protein kinase 17A (Homo sapiens) (UniProt Q9UEE5); conditions: at 10 µM
T2 sequence (whole entry): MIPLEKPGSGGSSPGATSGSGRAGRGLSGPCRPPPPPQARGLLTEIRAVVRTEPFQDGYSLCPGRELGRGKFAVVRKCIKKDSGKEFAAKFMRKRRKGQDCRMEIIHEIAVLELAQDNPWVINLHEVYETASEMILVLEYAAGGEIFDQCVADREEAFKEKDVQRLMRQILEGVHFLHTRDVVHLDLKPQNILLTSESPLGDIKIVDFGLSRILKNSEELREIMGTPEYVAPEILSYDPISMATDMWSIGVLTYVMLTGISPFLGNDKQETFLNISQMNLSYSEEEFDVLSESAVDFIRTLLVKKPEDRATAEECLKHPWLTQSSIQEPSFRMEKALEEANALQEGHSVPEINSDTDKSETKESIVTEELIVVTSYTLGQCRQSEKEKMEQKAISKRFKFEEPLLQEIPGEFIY

[4] = molecular target: T3, Ephrin type-B receptor 1 (Homo sapiens) (UniProt P54762); assay: Selectivity interaction (Kinase panel (Invitrogen)) EUB0000639a EPHB1; conditions: at 200 nM
T3 sequence (whole entry): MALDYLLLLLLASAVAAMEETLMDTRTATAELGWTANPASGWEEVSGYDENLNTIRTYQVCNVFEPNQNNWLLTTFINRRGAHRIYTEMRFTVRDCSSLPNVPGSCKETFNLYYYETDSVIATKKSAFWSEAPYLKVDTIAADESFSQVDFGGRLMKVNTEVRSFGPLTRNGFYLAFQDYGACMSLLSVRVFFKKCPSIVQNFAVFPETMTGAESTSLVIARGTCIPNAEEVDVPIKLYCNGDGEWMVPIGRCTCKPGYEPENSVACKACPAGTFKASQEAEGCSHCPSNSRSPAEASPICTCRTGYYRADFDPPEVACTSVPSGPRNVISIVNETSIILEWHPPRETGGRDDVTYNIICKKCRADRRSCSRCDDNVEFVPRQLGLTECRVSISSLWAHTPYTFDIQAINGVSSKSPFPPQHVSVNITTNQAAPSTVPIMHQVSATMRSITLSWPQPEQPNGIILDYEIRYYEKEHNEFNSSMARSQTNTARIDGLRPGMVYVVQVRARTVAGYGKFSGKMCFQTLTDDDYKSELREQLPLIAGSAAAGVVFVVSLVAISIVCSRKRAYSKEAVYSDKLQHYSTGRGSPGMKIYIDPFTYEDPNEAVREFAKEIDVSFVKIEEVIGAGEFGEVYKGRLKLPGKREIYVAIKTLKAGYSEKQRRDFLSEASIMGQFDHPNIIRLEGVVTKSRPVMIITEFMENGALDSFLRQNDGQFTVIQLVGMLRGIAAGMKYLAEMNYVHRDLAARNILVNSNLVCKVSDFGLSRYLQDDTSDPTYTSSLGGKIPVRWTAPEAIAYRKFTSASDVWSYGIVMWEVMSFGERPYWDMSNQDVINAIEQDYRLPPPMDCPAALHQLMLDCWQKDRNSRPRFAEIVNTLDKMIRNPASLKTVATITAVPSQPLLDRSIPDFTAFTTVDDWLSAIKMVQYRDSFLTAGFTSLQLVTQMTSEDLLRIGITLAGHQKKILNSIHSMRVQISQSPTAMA

[5] = molecular target: Mitogen-activated protein kinase kinase kinase 8 (Homo sapiens, UniProt P41279); assay: Selectivity interaction (Kinase panel (Invitrogen)) EUB0000639a MAP3K8; conditions: at 200 nM
[6] = molecular target: Phosphatidylinositol 4-kinase beta (Homo sapiens, UniProt Q9UBF8); assay: Selectivity interaction (KinomeScan (DiscoverX)) EUB0000695a PI4KB; conditions: at 100 nM
[7] = molecular target: T4, Dual specificity tyrosine-phosphorylation-regulated kinase 3 (Homo sapiens, UniProt O43781); assay: Selectivity interaction (Enzymatic assay (Eurofins)) EUB0001049a DYRK3
T4 sequence (O43781 whole entry): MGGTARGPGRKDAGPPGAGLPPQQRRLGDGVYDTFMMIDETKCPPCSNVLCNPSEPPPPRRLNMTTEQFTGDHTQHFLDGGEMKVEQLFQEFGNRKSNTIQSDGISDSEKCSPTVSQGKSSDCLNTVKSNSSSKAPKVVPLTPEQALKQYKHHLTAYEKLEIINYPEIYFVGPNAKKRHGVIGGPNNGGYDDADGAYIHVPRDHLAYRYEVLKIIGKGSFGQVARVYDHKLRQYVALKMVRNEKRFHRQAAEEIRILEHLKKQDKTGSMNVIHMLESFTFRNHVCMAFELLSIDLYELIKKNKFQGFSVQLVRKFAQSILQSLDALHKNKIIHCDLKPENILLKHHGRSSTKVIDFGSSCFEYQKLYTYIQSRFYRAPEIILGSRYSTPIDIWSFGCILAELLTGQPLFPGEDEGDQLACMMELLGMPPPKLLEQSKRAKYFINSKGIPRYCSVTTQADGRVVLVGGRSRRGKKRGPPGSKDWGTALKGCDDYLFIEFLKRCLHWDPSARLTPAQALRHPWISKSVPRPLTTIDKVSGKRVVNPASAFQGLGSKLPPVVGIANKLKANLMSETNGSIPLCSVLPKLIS

[8] = molecular target: Protein arginine N-methyltransferase 3 (Homo sapiens, UniProt O60678); conditions: at 10 µM
[9] = molecular target: Polycomb protein EED (Homo sapiens) (UniProt O75530); assay: Selectivity interaction (PWWP, WD40, and Tudor domain panel (DSLS measurements, literature)) EUB0000270b EED
[10] = molecular target: Citron Rho-interacting kinase (Homo sapiens) (UniProt O14578); conditions: at 10 µM
[11] = molecular target: Bone morphogenetic protein receptor type-1A (Homo sapiens, UniProt P36894); conditions: at 10 µM

Protein arginine N-methyltransferase 3, sequence (O60678 2-531 limits assumed): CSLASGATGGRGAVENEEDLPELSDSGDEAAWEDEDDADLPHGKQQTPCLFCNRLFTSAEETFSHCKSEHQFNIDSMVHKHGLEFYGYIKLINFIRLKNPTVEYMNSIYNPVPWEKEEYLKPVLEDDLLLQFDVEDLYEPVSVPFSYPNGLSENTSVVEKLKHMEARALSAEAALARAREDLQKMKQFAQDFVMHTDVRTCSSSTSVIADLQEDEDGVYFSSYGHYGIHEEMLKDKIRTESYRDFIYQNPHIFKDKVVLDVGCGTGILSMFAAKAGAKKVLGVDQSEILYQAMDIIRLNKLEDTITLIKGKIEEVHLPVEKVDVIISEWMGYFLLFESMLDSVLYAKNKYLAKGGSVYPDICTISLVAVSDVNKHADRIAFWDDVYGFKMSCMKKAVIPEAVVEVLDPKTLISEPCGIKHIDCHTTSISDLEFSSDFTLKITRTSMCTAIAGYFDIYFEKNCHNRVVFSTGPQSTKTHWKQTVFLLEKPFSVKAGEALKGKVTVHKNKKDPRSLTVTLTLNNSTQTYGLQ
Polycomb protein EED (Homo sapiens), sequence (O75530 2-441 limits assumed): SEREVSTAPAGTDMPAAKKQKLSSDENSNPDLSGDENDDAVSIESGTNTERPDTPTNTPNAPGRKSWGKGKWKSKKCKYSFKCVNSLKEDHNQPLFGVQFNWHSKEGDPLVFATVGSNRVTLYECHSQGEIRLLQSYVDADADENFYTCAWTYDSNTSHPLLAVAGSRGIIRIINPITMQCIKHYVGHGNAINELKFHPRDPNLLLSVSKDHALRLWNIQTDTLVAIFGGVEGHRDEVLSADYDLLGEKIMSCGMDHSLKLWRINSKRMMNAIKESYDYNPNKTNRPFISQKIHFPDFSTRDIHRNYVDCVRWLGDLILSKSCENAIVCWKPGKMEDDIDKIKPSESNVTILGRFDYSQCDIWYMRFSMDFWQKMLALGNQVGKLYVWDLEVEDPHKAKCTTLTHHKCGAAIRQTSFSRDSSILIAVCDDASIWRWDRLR
Citron Rho-interacting kinase (Homo sapiens), sequence (O14578 whole entry): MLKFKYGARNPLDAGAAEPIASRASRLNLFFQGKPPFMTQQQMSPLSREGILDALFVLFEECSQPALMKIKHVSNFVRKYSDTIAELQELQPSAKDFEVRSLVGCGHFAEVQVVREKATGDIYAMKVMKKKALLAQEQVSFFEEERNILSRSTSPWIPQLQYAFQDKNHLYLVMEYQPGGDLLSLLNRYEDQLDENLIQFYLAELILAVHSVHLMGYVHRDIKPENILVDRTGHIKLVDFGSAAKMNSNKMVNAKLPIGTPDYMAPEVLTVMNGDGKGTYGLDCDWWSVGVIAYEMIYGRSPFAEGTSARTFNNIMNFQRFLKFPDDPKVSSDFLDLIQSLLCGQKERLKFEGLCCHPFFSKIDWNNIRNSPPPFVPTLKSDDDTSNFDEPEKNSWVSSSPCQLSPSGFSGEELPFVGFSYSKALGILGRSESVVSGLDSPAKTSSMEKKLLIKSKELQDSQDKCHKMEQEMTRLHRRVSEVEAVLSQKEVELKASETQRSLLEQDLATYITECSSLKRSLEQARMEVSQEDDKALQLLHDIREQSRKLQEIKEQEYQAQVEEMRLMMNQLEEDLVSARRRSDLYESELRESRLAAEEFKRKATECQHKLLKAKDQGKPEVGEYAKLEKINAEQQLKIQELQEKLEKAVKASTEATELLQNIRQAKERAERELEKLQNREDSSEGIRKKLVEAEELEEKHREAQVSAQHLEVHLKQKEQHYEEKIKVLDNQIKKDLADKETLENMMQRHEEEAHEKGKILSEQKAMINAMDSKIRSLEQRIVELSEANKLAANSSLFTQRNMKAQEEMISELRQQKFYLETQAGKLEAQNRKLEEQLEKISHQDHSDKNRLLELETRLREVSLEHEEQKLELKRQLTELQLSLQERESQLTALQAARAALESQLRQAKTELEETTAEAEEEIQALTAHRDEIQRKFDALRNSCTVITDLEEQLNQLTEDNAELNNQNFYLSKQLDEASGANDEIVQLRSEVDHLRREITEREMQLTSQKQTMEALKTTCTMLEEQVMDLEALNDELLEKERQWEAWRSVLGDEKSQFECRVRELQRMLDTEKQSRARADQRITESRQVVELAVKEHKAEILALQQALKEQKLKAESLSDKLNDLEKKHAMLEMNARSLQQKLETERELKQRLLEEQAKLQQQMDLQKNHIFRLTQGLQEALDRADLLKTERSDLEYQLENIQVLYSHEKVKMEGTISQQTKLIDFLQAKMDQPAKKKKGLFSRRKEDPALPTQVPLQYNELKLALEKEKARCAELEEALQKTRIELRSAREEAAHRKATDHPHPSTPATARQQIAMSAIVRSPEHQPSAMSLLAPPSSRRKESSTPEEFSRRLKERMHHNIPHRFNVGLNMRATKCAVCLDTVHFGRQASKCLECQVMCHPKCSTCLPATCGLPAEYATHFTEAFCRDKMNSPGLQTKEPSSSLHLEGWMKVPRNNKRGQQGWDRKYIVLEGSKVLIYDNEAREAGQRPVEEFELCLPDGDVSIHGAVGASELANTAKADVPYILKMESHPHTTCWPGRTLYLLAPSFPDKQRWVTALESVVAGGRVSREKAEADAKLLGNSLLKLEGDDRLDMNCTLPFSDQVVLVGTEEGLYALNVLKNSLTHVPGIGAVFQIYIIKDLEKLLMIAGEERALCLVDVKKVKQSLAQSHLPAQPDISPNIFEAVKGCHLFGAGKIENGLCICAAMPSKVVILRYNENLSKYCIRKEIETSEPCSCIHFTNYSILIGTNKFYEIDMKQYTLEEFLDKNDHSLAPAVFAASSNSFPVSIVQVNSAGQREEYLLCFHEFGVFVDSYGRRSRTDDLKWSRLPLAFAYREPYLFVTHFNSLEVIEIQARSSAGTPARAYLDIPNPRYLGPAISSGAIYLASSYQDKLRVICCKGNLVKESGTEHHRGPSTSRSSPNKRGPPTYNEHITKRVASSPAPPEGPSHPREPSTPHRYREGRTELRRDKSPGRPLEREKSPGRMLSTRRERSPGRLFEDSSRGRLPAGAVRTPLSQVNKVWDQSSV
Receptor tyrosine-protein kinase erbB-2, sequence (P04626 whole entry, canonical isoform): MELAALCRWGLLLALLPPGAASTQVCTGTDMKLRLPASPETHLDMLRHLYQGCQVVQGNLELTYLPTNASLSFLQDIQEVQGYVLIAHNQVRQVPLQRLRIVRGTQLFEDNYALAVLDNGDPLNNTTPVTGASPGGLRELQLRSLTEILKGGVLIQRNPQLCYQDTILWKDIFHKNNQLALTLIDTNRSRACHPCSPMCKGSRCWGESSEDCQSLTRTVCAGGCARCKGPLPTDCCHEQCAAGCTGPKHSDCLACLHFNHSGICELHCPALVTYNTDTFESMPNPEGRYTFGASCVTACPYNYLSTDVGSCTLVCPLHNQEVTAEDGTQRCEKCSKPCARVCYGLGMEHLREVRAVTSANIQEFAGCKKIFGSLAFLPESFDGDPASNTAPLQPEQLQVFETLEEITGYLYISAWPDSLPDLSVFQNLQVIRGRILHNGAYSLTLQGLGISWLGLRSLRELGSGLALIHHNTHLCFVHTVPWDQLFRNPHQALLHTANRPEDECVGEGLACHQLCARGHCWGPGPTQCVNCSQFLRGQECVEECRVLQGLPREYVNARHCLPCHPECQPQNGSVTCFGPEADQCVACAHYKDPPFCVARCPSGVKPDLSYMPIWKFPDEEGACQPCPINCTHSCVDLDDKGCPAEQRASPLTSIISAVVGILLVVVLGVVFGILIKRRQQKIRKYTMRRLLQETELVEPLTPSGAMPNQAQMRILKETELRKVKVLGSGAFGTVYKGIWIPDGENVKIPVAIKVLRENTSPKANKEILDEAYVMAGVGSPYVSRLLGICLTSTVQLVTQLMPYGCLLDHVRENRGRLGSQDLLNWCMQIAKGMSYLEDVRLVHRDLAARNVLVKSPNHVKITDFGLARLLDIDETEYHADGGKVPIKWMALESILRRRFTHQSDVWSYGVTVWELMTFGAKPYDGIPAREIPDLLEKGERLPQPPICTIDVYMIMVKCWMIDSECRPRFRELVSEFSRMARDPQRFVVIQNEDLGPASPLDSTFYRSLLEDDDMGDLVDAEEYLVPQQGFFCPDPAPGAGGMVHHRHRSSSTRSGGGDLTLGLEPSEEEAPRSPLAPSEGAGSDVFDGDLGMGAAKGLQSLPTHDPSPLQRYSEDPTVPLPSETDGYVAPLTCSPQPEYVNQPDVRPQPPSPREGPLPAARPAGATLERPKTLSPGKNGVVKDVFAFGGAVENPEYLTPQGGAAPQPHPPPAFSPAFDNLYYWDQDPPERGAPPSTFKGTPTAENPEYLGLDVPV
Phosphatidylinositol 4-kinase beta, sequence (Q9UBF8 2-816 limits assumed): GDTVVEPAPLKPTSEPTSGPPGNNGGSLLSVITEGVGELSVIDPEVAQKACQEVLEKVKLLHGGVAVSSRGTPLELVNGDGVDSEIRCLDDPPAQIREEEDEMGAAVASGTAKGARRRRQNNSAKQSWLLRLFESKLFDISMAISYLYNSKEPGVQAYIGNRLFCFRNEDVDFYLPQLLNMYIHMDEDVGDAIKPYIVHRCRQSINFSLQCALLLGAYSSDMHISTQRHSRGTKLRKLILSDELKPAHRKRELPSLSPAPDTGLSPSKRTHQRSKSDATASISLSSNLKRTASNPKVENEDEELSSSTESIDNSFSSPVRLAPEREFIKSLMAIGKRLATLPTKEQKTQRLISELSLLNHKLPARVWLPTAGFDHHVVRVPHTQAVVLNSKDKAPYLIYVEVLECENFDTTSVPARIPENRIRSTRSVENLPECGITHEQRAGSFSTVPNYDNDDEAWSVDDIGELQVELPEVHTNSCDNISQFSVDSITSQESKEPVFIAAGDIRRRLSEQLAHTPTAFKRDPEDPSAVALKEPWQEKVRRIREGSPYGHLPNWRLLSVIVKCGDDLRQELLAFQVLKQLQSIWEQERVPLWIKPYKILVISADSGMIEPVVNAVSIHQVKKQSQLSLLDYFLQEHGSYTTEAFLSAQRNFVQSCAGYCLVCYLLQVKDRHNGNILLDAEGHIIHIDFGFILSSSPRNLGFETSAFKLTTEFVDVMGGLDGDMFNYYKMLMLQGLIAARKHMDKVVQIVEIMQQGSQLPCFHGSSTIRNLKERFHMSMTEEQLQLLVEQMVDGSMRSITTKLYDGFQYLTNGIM

With CNC(=O)Nc1ccc(-c2nc(N3CC4CCC(C3)O4)c3cnn(C4CCC5(CC4)OCCO5)c3n2)cc1 the % of inhibition [1] was 0%.
Cc1ccc(-c2ccc3c(ccc4sc5c(c43)NC[C@@H](C)NC5=O)n2)cn1 gave a % of inhibition [2] of 58%.
For CCN(CC)CCCCNc1ncc2cc(-c3cc(OC)cc(OC)c3)c(NC(=O)NC(C)(C)C)nc2n1, the % of control [3] was 100%.
In the case of CC[C@@H]1[C@H](F)C(=O)N[C@@H]1COc1nccc2cc(C(N)=O)c(OC)cc12 [ZIMLOVISERTIB], the % of inhibition [4] is reported as 1.6% and the % of inhibition [5] is reported as 24.9%.
Cc1cc(F)c(C(=O)Nc2cccc(-c3nncn3C(C)C)n2)cc1-n1cnc(C2CC2)c1 showed a % of control [6] of 100%.
For COc1cc(Nc2nc(C)cc(-c3cnn4nc(OC)ccc34)n2)cc(C(F)(F)F)c1, the IC50 [7] was over 10 µM.
CNCCN1CCC(c2cc(CN(C)C(=O)c3cccc(Oc4ccccc4)c3)ccn2)CC1 gave a % activity [8] of over 90%.
Compound Cc1cc(CN)cc(C)c1-c1ncn(C)c1-c1cncn1C has a dTagg [9] of 0.2 K.
Cc1cc([C@@H](C)Nc2ccccc2C(=O)O)c2nc(N3CCOCC3)cc(=O)n2c1 [AZD-6482] gave a % of control [10] of 89% and a % of control [11] of 98%.
